Laboratory results published in ChEMBL document CHEMBL1201862, “PubChem BioAssay data set” (2004).
Calls of active or inactive are those of the source.

Columns and labels:
[1] = molecular target: G-protein coupled receptor 35 (Homo sapiens, UniProt Q9HC97); assay: inhibition of zaprinast-stimulated GPR35 beta-arrestin translocation – imaging, U2OS, beta-arrestin-GFP, zaprinast agonist, primary screen (AID 2058); assay type: functional;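 note: antagonist potency meaning inhibition of agonist-induced arrestin redistribution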
Sequence of G-protein coupled receptor 35 (Q9HC97 whole entry): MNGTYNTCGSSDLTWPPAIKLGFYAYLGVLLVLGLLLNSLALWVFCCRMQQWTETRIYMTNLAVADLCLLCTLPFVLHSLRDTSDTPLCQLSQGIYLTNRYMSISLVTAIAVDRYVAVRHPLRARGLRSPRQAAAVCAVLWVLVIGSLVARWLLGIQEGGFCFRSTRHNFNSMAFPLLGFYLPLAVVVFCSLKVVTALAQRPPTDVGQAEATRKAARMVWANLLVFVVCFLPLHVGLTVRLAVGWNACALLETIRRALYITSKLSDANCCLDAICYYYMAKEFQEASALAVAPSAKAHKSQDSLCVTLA

Beta-lactamase [2] = molecular target: Beta-lactamase (Pseudomonas aeruginosa, UniProt Q79MP6);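 note: biochemical dose-response test of metallo-beta-lactamase enzyme inhibition, read out by epi-absorbance; purified recombinant IMP-1 metallo-beta-lactamase with nitrocefin as substrate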
Beta-lactamase [3] = molecular target: Beta-lactamase (Salmonella choleraesuis (strain SC-B67), UniProt Q5J463)
Sequence of Beta-lactamase (Salmonella choleraesuis (strain SC-B67), UniProt Q5J463) (Q5J463 whole entry): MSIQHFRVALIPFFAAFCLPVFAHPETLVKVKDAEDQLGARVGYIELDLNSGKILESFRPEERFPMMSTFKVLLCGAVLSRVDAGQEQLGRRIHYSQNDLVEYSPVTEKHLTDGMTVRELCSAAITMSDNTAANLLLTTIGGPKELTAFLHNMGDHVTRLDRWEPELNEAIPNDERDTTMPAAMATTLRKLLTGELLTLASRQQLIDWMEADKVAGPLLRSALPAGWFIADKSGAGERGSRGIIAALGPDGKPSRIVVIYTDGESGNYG

Keap1/Nrf2 = Keap1/Nrf2 (Homo sapiens, UniProt Q14145); assay: disruptors of Keap1 binding to Nrf2 peptide – biochemical, fluorescence polarization, cherry-picked samples, dose response (AID 588683)
HEK293 = assay: Fluorescence-based counterscreen for potentiators or agonists of NPY-Y2: cell-based high-throughput dose response assay to identify inhibitors of cyclic nucleotide gated ion channel (CNGC) activity. In this assay, the parental HEK293 cell line transfected with a cyclic-nucleotide gated ion channel (CNGC)-based cAMP sensor is used to measure inhibition of isoproterenol-induced CNGC activity by test compound.; assay type: functional; conditions: Homo sapiens;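 note: stimulus is 1 µM isoproterenol at EC100 plus PDE inhibitor Ro 20-1724 at 25 µM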
[4] = molecular target: T1, Neuropeptide Y receptor type 2 (Homo sapiens, UniProt P49146); assay: Fluorescence-based cell-based high-throughput dose response assay for agonists of NPY-Y2. [Related pubchem assays: 1703 (Screening assay (CNGC inhibitors).), 1359 (Screening assay (NPY-Y2 potentiators or agonists).), 1304 (Screening assay (NPY-Y1 potentiators or agonists).), 1710 (Screening assay (NPY-Y2 agonists).), 1791 (Summary AID.)]; assay type: functional
T1 sequence (P49146 whole entry): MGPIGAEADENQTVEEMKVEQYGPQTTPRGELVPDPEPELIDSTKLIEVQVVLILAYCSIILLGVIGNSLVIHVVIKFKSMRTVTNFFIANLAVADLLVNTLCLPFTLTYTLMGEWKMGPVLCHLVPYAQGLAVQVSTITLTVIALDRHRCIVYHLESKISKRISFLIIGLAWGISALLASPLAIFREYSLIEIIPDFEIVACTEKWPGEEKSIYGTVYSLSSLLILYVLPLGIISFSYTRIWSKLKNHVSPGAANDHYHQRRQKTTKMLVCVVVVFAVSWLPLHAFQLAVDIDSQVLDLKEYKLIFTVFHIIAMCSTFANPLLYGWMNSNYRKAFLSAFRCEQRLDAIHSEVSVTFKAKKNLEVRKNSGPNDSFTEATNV

[5] = Trypanosoma cruzi growth suppression in host cells – NIH3T3 host cells, beta-gal luminescence, confirmation (AID 2044); assay type: functional, cell-based;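 note: intracellular parasites grown in NIH/3T3 mouse fibroblasts as host cells; luminescent beta-galactosidase reporter signal from transgenic T. cruzi replicating inside host cells; inhibitors lower the luminescence signal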
[6] = molecular target: T2, Neuropeptide Y receptor type 1 (Homo sapiens, UniProt P25929); assay: Fluorescence-based counterscreen for agonists of NPY-Y2: cell-based high-throughput dose response assay for agonists of NPY-Y1.; assay type: functional
T2 sequence (P25929 whole entry): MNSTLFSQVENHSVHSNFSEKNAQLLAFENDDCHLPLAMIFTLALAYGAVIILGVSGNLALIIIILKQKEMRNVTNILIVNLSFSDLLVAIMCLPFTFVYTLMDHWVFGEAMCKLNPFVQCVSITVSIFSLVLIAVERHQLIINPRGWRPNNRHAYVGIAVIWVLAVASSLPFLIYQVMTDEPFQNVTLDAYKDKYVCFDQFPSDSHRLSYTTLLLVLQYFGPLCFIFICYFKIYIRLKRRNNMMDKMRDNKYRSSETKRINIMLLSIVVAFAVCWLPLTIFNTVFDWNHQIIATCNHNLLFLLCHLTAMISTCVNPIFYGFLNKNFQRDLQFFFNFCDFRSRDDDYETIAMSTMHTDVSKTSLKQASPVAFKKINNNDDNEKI

[7] = NIH3T3 cell viability loss – ATP luminescence, mouse fibroblasts, counter-screen, dose response (AID 2010); assay type: functional, cell-based;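 note: cells exposed to compound for about 90 hours before reading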
[8] = viability loss in THP-1 monocytes – THP-1 cells, cytotoxicity control for Vif-APOBEC3G degradation inhibitor project, dose response (AID 1117359); assay type: functional; conditions: THP-1
[9] = HIV-1 Vif–A3G interaction blockers – biochemical, TR-FRET, GST-Vif 1-94, biotin-A3G peptide, dose response retest, primary screen (AID 1117319); assay type: functional;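 note: TR-FRET signal of purified GST-Vif binding a biotinylated A3G peptide; inhibitors lower the FRET signal by blocking Vif and A3G binding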
[10] = molecular target: Lysosomal acid glucosylceramidase (Homo sapiens, UniProt P04062); assay: Dose response cell-based high throughput screening assay to identify enhancers of beta-glucosidase activity. [Related pubchem assays: 784 ]; assay type: functional
Sequence of Lysosomal acid glucosylceramidase (P04062 whole entry): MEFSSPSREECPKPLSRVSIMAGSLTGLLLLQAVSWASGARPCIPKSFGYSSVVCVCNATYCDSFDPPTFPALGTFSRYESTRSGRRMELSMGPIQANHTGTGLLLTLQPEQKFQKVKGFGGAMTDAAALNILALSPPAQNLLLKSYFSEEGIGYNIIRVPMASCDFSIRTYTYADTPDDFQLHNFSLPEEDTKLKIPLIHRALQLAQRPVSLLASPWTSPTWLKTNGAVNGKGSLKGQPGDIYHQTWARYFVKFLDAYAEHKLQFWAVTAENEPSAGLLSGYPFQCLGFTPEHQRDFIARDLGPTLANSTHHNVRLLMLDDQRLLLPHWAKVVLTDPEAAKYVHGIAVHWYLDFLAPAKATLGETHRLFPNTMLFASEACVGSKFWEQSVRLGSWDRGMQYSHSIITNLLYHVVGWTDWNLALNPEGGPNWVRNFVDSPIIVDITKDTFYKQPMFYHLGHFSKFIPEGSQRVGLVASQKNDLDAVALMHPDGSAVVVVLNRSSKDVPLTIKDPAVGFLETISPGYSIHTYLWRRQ

Cytochrome P450 2C19 = Cytochrome P450 2C19 (Homo sapiens, UniProt P33261); assay: Cytochrome panel assay with activity outcomes. Panel member name: p450-cyp2c19 Compounds with AC50 equal or less than 10 uM are considered active; assay type: functional
Sequence of Cytochrome P450 2C19 (P33261 whole entry): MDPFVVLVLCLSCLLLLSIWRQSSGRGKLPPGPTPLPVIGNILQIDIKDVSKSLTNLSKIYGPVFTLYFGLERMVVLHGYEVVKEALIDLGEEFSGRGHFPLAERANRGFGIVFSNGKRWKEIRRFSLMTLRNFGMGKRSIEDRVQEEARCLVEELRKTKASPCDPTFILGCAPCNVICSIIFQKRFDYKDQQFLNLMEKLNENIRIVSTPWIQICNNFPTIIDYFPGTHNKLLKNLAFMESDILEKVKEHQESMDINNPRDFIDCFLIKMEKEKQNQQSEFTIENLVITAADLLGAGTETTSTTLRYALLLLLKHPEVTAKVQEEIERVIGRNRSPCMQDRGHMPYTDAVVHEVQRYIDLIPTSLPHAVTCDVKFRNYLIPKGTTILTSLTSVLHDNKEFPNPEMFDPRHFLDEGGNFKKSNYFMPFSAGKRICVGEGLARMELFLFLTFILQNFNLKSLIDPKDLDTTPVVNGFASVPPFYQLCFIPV

Cytochrome P450 2D6 = Cytochrome P450 2D6 (Homo sapiens, UniProt P10635);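 note: CYP2D6 member of a cytochrome P450 panel assay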
Sequence of Cytochrome P450 2D6 (P10635 whole entry): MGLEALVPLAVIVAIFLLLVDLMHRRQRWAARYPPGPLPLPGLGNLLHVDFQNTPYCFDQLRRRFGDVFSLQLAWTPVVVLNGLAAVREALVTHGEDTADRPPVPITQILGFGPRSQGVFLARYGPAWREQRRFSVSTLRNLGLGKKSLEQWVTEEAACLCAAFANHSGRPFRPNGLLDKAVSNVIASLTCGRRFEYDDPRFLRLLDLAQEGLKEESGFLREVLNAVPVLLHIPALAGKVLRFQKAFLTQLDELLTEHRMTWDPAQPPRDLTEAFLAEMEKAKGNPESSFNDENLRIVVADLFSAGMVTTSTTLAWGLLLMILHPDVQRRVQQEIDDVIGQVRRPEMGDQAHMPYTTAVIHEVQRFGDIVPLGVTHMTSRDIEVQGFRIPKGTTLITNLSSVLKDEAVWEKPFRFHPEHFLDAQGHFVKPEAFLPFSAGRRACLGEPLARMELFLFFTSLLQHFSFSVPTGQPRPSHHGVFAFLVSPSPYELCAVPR

Cytochrome P450 2C9 = Cytochrome P450 2C9 (Homo sapiens, UniProt P11712)
Sequence of Cytochrome P450 2C9 (P11712 whole entry): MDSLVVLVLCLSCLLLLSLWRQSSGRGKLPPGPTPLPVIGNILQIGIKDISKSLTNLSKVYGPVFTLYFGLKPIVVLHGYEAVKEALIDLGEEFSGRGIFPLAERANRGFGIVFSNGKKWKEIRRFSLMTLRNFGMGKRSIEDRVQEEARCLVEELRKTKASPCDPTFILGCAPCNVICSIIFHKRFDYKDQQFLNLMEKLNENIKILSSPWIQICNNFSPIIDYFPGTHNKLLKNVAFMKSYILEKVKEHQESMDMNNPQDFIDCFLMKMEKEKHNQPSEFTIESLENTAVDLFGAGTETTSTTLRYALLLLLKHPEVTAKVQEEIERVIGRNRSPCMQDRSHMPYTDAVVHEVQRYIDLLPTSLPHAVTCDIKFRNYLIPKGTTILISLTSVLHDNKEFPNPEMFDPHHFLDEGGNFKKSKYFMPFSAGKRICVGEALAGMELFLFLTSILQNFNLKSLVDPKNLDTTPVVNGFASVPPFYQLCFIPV

[11] = molecular target: Glucose-6-phosphate 1-dehydrogenase (Homo sapiens, UniProt P11413); assay: inhibition of Homo sapiens G6PD, dose series – biochemical, fluorescence, selectivity assay for P. falciparum G6PD inhibitor project, dose response (AID 504792); assay type: functional
Sequence of Glucose-6-phosphate 1-dehydrogenase (P11413 whole entry): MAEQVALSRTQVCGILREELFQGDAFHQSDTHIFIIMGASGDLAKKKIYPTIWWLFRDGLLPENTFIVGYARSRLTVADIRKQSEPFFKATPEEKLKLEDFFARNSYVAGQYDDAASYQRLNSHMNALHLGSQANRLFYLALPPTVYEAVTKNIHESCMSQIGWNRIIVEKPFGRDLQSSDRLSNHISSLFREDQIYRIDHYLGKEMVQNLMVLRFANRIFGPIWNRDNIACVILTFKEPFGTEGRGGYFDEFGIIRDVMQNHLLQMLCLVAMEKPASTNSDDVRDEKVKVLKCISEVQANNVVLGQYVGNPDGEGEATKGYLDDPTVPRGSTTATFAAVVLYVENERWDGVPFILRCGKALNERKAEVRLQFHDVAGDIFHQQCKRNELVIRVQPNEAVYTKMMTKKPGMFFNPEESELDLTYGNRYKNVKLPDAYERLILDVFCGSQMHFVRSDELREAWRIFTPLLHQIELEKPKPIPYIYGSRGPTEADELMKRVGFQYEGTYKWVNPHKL

HeLa = assay: viability loss in HeLa cells – cell-based, 24 h, cherry-picked samples, cytotoxicity control, dose response (AID 504726); assay type: functional; conditions: Homo sapiens;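 note: potency for cytotoxicity as loss of luminescence signal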
ORF 73 = ORF 73 (Human herpesvirus 8, UniProt O40947); assay: KSHV LANA DNA-binding disruption – biochemical, fluorescence polarization, cherry-picked samples, dose response (AID 504725); set-up: species or system Human gammaherpesvirus 8;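 note: fluorescence polarization of a labeled DNA duplex reporting LANA DNA binding; potency is for inhibitors that block LANA binding to the DNA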
Troponin, cardiac muscle = Troponin, cardiac muscle (Homo sapiens, UniProt P19429+P45379+P63316); assay: compounds desensitizing RTF to calcium – biochemical, fluorescence, cardiac regulated thin filaments, triplicate IC50, dose response (AID 504742); assay type: protein-complex assay
Genome polyprotein = Genome polyprotein (dengue virus type 2, UniProt P29990); assay: flavivirus cap methylation enzyme inhibition – biochemical, confirmation dose response, primary screen (AID 588689); assay type: functional
Sequence of Genome polyprotein (P29990 2492-3391 limits assumed): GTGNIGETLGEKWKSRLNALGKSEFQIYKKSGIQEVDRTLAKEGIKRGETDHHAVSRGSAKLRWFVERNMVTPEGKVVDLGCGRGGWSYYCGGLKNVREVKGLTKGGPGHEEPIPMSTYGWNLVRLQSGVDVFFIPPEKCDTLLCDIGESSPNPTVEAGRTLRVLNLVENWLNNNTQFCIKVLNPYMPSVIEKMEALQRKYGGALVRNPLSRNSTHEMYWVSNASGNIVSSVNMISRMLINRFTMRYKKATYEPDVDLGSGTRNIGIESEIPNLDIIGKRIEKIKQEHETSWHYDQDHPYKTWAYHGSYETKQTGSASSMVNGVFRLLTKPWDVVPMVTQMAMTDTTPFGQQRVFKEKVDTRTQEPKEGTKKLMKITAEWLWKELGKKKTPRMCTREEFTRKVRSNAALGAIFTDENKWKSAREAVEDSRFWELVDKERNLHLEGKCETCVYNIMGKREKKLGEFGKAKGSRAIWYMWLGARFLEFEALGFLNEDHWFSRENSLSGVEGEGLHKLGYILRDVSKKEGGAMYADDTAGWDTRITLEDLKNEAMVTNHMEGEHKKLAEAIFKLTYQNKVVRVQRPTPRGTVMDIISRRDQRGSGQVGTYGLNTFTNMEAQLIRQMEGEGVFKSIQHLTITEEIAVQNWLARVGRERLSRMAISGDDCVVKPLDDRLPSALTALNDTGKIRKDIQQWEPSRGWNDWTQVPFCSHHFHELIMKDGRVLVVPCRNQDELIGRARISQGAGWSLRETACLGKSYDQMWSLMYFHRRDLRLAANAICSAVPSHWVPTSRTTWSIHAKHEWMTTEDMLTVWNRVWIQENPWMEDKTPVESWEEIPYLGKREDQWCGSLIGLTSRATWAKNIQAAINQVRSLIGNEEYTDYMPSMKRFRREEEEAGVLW

[12] = molecular target: Metabotropic glutamate receptor 4 (Rattus norvegicus, UniProt P31423); assay: Modulation of the Metabotropic Glutamate Receptor mGluR4: Rat PAM Potency. [Related pubchem assays (depositor defined):AID2437, AID2807]; assay type: functional
Sequence of Metabotropic glutamate receptor 4 (P31423 whole entry): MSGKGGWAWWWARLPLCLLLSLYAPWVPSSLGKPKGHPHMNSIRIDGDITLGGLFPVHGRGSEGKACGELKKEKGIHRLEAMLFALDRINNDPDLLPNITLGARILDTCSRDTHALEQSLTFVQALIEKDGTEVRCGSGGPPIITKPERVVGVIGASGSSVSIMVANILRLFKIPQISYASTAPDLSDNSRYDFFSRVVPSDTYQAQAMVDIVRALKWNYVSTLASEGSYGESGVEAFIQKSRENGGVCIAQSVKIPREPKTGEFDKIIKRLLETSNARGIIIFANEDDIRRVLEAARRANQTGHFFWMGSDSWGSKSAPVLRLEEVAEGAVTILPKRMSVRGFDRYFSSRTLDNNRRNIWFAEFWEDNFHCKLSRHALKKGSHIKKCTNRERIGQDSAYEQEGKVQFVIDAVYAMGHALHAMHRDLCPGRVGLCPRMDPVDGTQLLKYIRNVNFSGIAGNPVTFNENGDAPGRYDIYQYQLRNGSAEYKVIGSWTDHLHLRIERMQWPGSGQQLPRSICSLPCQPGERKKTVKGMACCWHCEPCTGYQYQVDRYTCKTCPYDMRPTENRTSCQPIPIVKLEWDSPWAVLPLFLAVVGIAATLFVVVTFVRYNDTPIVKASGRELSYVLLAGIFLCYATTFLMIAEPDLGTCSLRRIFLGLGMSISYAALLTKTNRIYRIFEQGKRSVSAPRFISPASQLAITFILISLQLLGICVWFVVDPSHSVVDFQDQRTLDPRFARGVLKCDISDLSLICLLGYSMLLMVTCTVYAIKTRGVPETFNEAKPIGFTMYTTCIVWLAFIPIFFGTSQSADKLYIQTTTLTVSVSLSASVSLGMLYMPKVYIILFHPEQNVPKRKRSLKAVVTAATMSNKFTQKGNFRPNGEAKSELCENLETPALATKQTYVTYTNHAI

Q: Which IC50 [1] does the source give for O=c1cc(C(F)(F)F)c2cc3c4c(c2o1)CCCN4CCC3 here?
A: 1.37 µM (active)

Q: What about the IC50 (Beta-lactamase [2]) of the same compound?
A: 78.2 µM (inactive)

Q: And the IC50 (Beta-lactamase [3])?
A: 5.57 µM (active)

Q: And the AC50 (Keap1/Nrf2)?
A: 2.8 µM (active)

Q: For COc1ccc(NC(=O)c2c(OC)cccc2OC)c(OC)c1, which EC50 (HEK293) is on record?
A: > 35.4 µM (not active)

Q: And the EC50 [4]?
A: > 35.4 µM (not active)

Q: What about the EC50 [5] of the same compound?
A: 3.06 µM (active)

Q: And the EC50 [6]?
A: > 35.4 µM (not active)

Q: And the EC50 [7]?
A: > 60 µM (not active)

Q: What about the CC50 [8] of the same compound?
A: > 40 µM (active)

Q: What about the IC50 [9] of the same compound?
A: > 60.5 µM (active)

Q: With Br.Brc1ccc(C2=Nn3c(nnc3-c3cccnc3)SC2)s1 as the compound, how does the EC50 [10] read?
A: > 50 µM (not active)

Q: And the AC50 (Cytochrome P450 2C19)?
A: inconclusive

Q: And the AC50 (Cytochrome P450 2D6)?
A: 4.47 µM (inconclusive)

Q: And the AC50 (Cytochrome P450 2C9)?
A: 22.4 µM (inconclusive)

Q: Which IC50 [11] does the source give for O=C1C=CC2=C3c4cc(O)c(O)cc4CC3(O)COC2=C1O (stereo unspecified) here?
A: > 80 µM (inactive)

Q: What about the AC50 (HeLa) of the same compound?
A: 179 µM (active)

Q: What about the AC50 (ORF 73) of the same compound?
A: 40.3 µM (active)

Q: What about the IC50 (Troponin, cardiac muscle) of the same compound?
A: 16.6 µM (inactive)

Q: And the IC50 (Genome polyprotein)?
A: 26.5 µM (active)

Q: For O=C(Nc1ccc(N2C(=O)[C@H]3CCCC[C@@H]3C2=O)c(Cl)c1)c1ccccn1, which EC50 [12] is on record?
A: 0.65 µM (active)
